From patent US9593121B2, “Indole substituted pyrrolopyrimidinyl inhibitors of Uba6” (Millennium Pharmaceuticals, Inc., priority 2012, dated 2017)
Counter-ions that a name gives are not always drawn.

Molecular target: recombinant human his-UBA6 enzyme (Homo sapiens (Human), UniProt A0AVT1)
Experiment: UBA6 AlphaScreen Assay
Type: biochemical
Details: for inhibition at 0.123 µM: compound at 0.123 μM
Protocol: UBA6 AlphaScreen® Assay. The UBA6 enzmatic reaction totals 20 μL and contains 50 mM HEPES (pH 7.5), 0.05% BSA, 0.02% Tween 20, 0.1 mM TCEP, 5 mM MgCl2, 2 μM ATP, 60 nM Flag-Ubiquitin, 20 nM Biotin-his-Use1, and 0.15 nM recombinant human his-UBA6 enzyme. The enzymatic reaction mixture, with and without compound inhibitor, is incubated at 24° C. for 90 minutes in a 384 well plate before termination with 10 μL of Stop/Detection buffer (50 mM HEPES (pH 7.5), 0.05% BSA, 0.02% Tween 20, 0.1 mM TCEP, 20 mM EDTA, 30 μg/ml anti-FLAG Acceptor beads (Perkin Elmer), and 6 μg/mL streptavidin donor beads (Perkin Elmer). After incubation for 2 hours at 24° C. in a dark room, quantification of the AlphaScreen signal is performed on the Pherastar™ (BMG).

recombinant human his-UBA6 enzyme, sequence (A0AVT1 whole entry): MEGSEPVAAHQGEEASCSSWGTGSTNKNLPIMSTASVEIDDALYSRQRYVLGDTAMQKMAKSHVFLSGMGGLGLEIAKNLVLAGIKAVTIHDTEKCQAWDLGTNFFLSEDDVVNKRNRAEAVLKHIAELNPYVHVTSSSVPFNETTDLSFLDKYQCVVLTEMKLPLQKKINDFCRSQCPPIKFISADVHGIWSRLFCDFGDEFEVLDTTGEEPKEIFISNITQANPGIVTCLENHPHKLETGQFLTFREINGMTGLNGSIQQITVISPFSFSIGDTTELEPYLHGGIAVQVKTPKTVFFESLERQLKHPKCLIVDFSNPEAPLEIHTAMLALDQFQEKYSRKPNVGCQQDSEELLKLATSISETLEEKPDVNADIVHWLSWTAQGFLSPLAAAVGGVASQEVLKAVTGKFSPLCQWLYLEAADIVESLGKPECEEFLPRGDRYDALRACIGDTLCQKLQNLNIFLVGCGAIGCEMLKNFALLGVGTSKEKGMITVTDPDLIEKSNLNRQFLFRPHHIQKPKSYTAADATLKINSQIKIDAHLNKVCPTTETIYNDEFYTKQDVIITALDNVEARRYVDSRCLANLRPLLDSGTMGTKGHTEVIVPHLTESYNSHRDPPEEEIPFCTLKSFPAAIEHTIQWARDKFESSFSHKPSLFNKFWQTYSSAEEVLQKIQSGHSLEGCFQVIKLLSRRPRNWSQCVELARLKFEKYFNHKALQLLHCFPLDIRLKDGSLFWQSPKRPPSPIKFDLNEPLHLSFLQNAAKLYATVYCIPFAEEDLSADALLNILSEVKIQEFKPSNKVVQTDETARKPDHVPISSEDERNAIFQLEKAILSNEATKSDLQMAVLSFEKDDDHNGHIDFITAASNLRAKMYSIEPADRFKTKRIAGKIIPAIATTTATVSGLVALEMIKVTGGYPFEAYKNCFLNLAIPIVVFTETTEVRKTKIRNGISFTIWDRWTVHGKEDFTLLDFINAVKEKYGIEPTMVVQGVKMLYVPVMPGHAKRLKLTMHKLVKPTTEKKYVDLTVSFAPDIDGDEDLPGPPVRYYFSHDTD

NS(=O)(=O)OC[C@@H]1C[C@@H](n2ccc3c(-c4cc5ccccc5[nH]4)ncnc32)C[C@@H]1O [Compound I-01, ((1S,2S,4R)-4-(4-(1H-indol-2-yl)-7H-pyrrolo[2,3-d]pyrimidin-7-yl)-2-hydroxycyclopentyl)methyl sulfamate HCl]
IC50: ≤ 50 nM | inhibition at 0.123 µM: 87%

Cn1c(-c2ncnc3c2ccn3[C@@H]2C[C@@H](COS(N)(=O)=O)[C@@H](O)C2)cc2ccccc21 [Compound I-02, {(1S,2S,4R)-2-hydroxy-4-[4-(1-methyl-1H-indol-2-yl)-7H-pyrrolo[2,3-d]pyrimidin-7-yl]cyclopentyl}methyl sulfamate HCl]
IC50: 50 to 2000 nM | inhibition at 0.123 µM: 5.9%

COc1ccc2[nH]c(-c3ncnc4c3ccn4[C@@H]3C[C@@H](COS(N)(=O)=O)[C@@H](O)C3)cc2c1 [Compound I-03, {(1S,2S,4R)-2-hydroxy-4-[4-(5-methoxy-1H-indol-2-yl)-7H-pyrrolo[2,3-d]pyrimidin-7-yl]cyclopentyl}methyl sulfamate]
IC50: ≤ 50 nM | inhibition at 0.123 µM: 93%

NS(=O)(=O)OC[C@@H]1C[C@@H](n2ccc3c(-c4cc5ccc(Cl)cc5[nH]4)ncnc32)C[C@@H]1O [Compound I-04, {(1S,2S,4R)-4-[4-(6-chloro-1H-indol-2-yl)-7H-pyrrolo[2,3-d]pyrimidin-7-yl]-2-hydroxycyclopentyl}methyl sulfamate]
IC50: ≤ 50 nM | inhibition at 0.123 µM: 91%

N#Cc1ccc2cc(-c3ncnc4c3ccn4[C@@H]3C[C@@H](COS(N)(=O)=O)[C@@H](O)C3)[nH]c2c1 [Compound I-05, {(1S,2S,4R)-4-[4-(6-cyano-1H-indol-2-yl)-7H-pyrrolo[2,3-d]pyrimidin-7-yl]-2-hydroxycyclopentyl}methyl sulfamate]
IC50: ≤ 50 nM | inhibition at 0.123 µM: 86%

Cc1ccc2cc(-c3ncnc4c3ccn4[C@@H]3C[C@@H](COS(N)(=O)=O)[C@@H](O)C3)[nH]c2c1 [Compound I-06, {(1S,2S,4R)-2-hydroxy-4-[4-(6-methyl-1H-indol-2-yl)-7H-pyrrolo[2,3-d]pyrimidin-7-yl]cyclopentyl}methyl sulfamate]
IC50: ≤ 50 nM | inhibition at 0.123 µM: 88%

COc1ccc2cc(-c3ncnc4c3ccn4[C@@H]3C[C@@H](COS(N)(=O)=O)[C@@H](O)C3)[nH]c2c1 [Compound I-07, {(1S,2S,4R)-2-hydroxy-4-[4-(6-methoxy-1H-indol-2-yl)-7H-pyrrolo[2,3-d]pyrimidin-7-yl]cyclopentyl}methyl sulfamate]
IC50: ≤ 50 nM | inhibition at 0.123 µM: 90%

Cc1nc(-c2cc3ccccc3[nH]2)c2ccn([C@@H]3C[C@@H](COS(N)(=O)=O)[C@@H](O)C3)c2n1 [Compound I-08, {(1S,2S,4R)-2-hydroxy-4-[4-(1H-indol-2-yl)-2-methyl-7H-pyrrolo[2,3-d]pyrimidin-7-yl]cyclopentyl}methyl sulfamate HCl]
IC50: ≤ 50 nM | inhibition at 0.123 µM: 74%

NS(=O)(=O)OC[C@@H]1C[C@@H](n2ccc3c(-c4cc5cc(F)c(Cl)cc5[nH]4)ncnc32)C[C@@H]1O [Compound I-09, {(1S,2S,4R)-4-[4-(6-chloro-5-fluoro-1H-indol-2-yl)-7H-pyrrolo[2,3-d]pyrimidin-7-yl]-2-hydroxycyclopentyl}methyl sulfamate]
IC50: 50 to 2000 nM | inhibition at 0.123 µM: 49%

COc1ccc2cc(-c3ncnc4c3ccn4[C@@H]3C[C@@H](COS(N)(=O)=O)[C@@H](O)C3)n(C(=O)OC(C)(C)C)c2c1 [Compound I-10, tert-butyl 2-(7-{(1R,3S,4S)-3-hydroxy-4-[(sulfamoyloxy)methyl]cyclopentyl}-7H-pyrrolo[2,3-d]pyrimidin-4-yl)-6-methoxy-1H-indole-1-carboxylate]
IC50: 50 to 2000 nM | inhibition at 1.11 µM (compound at 1.11 μM (footnote ‡)): 26%

NS(=O)(=O)OC[C@@H]1C[C@@H](n2ccc3c(-c4cc5cc(F)ccc5[nH]4)ncnc32)C[C@@H]1O [Compound I-11, {(1S,2S,4R)-4-[4-(5-fluoro-1H-indol-2-yl)-7H-pyrrolo[2,3-d]pyrimidin-7-yl]-2-hydroxycyclopentyl}methyl sulfamate]
IC50: 50 to 2000 nM | inhibition at 0.123 µM: 61%

COc1cccc2cc(-c3ncnc4c3ccn4[C@@H]3C[C@@H](COS(N)(=O)=O)[C@@H](O)C3)[nH]c12 [Compound I-12, {(1S,2S,4R)-2-hydroxy-4-[4-(7-methoxy-1H-indol-2-yl)-7H-pyrrolo[2,3-d]pyrimidin-7-yl]cyclopentyl}methyl sulfamate]
IC50: 50 to 2000 nM | inhibition at 0.123 µM: 12%

Cc1c(-c2ncnc3c2ccn3[C@@H]2C[C@@H](COS(N)(=O)=O)[C@@H](O)C2)[nH]c2ccccc12 [Compound I-13, {(1S,2S,4R)-2-hydroxy-4-[4-(3-methyl-1H-indol-2-yl)-7H-pyrrolo[2,3-d]pyrimidin-7-yl]cyclopentyl}methyl sulfamate]
IC50: 50 to 2000 nM | inhibition at 0.123 µM: 16%

NS(=O)(=O)OC[C@@H]1C[C@@H](n2ccc3c(-c4cc5ccc(C(F)(F)F)cc5[nH]4)ncnc32)C[C@@H]1O [Compound I-14, [(1S,2S,4R)-2-hydroxy-4-{4-[6-(trifluoromethyl)-1H-indol-2-yl]-7H-pyrrolo[2,3-d]pyrimidin-7-yl}cyclopentyl]methyl sulfamate]
IC50: 50 to 2000 nM | inhibition at 0.123 µM: 32%
